Data taken from patent US20250129031A1, “1,2,3-TRIAZOLE CARBONYL SULFONYLAMIDE COMPOUNDS AND USE THEREOF” (PI INDUSTRIES LTD., priority 2022, published 2025).

tested on: Meloidogyne incognita; experiment: Meloidogyne incognita test: gall rating on cucumber plants in pots after soil application; assay type: in vivo; set-up: key: 0: no galls; 1: very few small galls; 2: numerous small galls; 3: numerous small galls of which some are grown together; 4: numerous small and some big galls; 25% of roots severely galled; 6: 50% of roots severely galled; 75% of roots severely galled; 8: no healthy roots but plant is still green; 9: roots rotting and plant dying; 10: plant and roots dead; conditions: 1000 ppm applied to soil inoculated with 5000 eggs & J2s; cucumber seedlings; rated 30 days after application; 0-10 scale (Zeck 1971); untreated check up to 8
Procedure: Meloidogyne incognita Test:
The trial pots were filled with soil containing a mixture of sand:soil:cocopeat in a ratio of 1:1:1. To the soil of each pot 5 mL of a nematode suspension (Meloidogyne incognita, mix of 5000 eggs & J2s) was added. One hour later the respective test compound at the stated concentration was applied to each pot. 10 days old cucumber seedlings were transplanted into the pots one day after the application. The cucumber plants were allowed to grow at a temperature of 27° C. under greenhouse conditions. The evaluation of the gall rating was recorded 30 days after the application. The plants were carefully uprooted and the roots were thoroughly washed. The gall rating was done on a 0-10 scale as described by Zeck (1971) and shown below: • 0=no galls • 1=very few small galls • 2=numerous small galls • 3=numerous small galls of which some are grown together • 4=numerous small and some big galls • 5=25% of roots severely galled • 6=50% of roots severely galled • 7=75% of roots severely galled • 8=no healthy roots but plant is still green • 9=roots rotting and plant dying • 10=plant and roots dead

Structure (SMILES) | gall rating scale
Cc1cc(S(=O)(=O)NC(=O)c2nnn(-c3ccc(Cl)cc3Cl)c2C)c(C)cc1Cl [Compound 280, N-((4-chloro-2,5-dimethylphenyl)sulfonyl)-1-(2,4-dichlorophenyl)-5-methyl-1H-1,2,3-triazole-4-carboxamide] | 4
Cc1c(Cl)cccc1S(=O)(=O)NC(=O)c1nnn(-c2ccc(C#N)cc2Cl)c1C [Compound 513] | 4
Cc1c(C(=O)NS(=O)(=O)c2ccc(F)cc2F)nnn1-c1ccc(Cl)cc1Cl [Compound 279, 1-(2,4-dichlorophenyl)-N-((2,4-difluorophenyl)sulfonyl)-5-methyl-1H-1,2,3-triazole-4-carboxamide] | 4
Cc1c(C(=O)NS(=O)(=O)c2cc(F)cc(F)c2)nnn1-c1ccc(OC(F)(F)F)cc1Cl [Compound 140] | 4
O=C(NS(=O)(=O)c1ccccc1)c1nnn(-c2cc(Cl)cc(Cl)c2)c1C(F)(F)F [Compound 35, 1-(3,5-dichlorophenyl)-N-(phenylsulfonyl)-5-(trifluoromethyl)-1H-1,2,3-triazole-4-carboxamide] | 4
Cc1c(C(=O)NS(=O)(=O)c2cc(F)cc(F)c2)nnn1-c1ccc(OC(F)F)cc1Cl [Compound 673] | 4
CCc1c(C(=O)NS(=O)(=O)c2ccccc2F)nnn1-c1ccc(OC(F)(F)F)cc1Cl [Compound 339, 1-(2-chloro-4-(trifluoromethoxy)phenyl)-5-ethyl-N-((2-fluorophenyl)sulfonyl)-1H-1,2,3-triazole-4-carboxamide] | 4
O=C(NS(=O)(=O)c1cc(C(F)(F)F)ccc1Cl)c1nnn(-c2ccc(F)cc2F)c1C(F)(F)F [Compound 774] | 4
O=C(NS(=O)(=O)c1ccccc1C(F)(F)F)c1nnn(-c2ccc(OC(F)(F)F)cc2Cl)c1C1CC1 [Compound 228] | 4
Cc1c(C(=O)NS(=O)(=O)c2ccccc2C(F)(F)F)nnn1-c1cc(Cl)c(Cl)cc1Cl [Compound 657] | 4
Cc1c(C(=O)NS(=O)(=O)c2cc(C(F)(F)F)ccc2Br)nnn1-c1ccc(Cl)cc1Cl [Compound 261] | 4
Cc1c(C(=O)NS(=O)(=O)c2cc(Cl)c(F)cc2F)nnn1-c1ccc(F)cc1Cl [Compound 250] | 4
O=C(NS(=O)(=O)c1cc(C(F)(F)F)ccc1Cl)c1nnn(-c2ccc(C(F)(F)F)cc2Cl)c1C(F)(F)F [Compound 76] | 4
Cc1c(C(=O)NS(=O)(=O)c2ccccc2F)nnn1-c1ccc(C#N)cc1F [Compound 415] | 4
N#Cc1ccc(-n2nnc(C(=O)NS(=O)(=O)c3ccccc3Cl)c2C(F)(F)F)c(F)c1 [Compound 563, N-((2-chlorophenyl)sulfonyl)-1-(4-cyano-2-fluorophenyl)-5-(trifluoromethyl)-1H-1,2,3-triazole-4-carboxamide] | 4
O=C(NS(=O)(=O)c1cc(Cl)ccc1Cl)c1cn(-c2cc(Cl)cc(Cl)c2)nn1 [Compound 2, 1-(3,5-dichlorophenyl)-N-((2,5-dichlorophenyl)sulfonyl)-1H-1,2,3-triazole-4-carboxamide] | 4
Cc1c(C(=O)NS(=O)(=O)c2cc(C(F)(F)F)ccc2C(F)(F)F)nnn1-c1c(Cl)cc(Cl)cc1Cl [Compound 430] | 4
Cc1c(C(=O)NS(=O)(=O)c2ccccc2F)nnn1-c1ccc(Cl)cc1Cl [Compound 278, 1-(2,4-dichlorophenyl)-N-((2-fluorophenyl)sulfonyl)-5-methyl-1H-1,2,3-triazole-4-carboxamide] | 4
O=C(NS(=O)(=O)c1cc(C(F)(F)F)ccc1Cl)c1nnn(-c2ccc(OC(F)(F)F)cc2Cl)c1C(F)(F)F [Compound 171, 1-(2-chloro-4-(trifluoromethoxy)phenyl)-N-((2-chloro-5-(trifluoromethyl)phenyl)sulfonyl)-5-(trifluoromethyl)-1H-1,2,3-triazole-4-carboxamide] | 4
CCc1c(C(=O)NS(=O)(=O)c2cc(OC)ccc2Cl)nnn1-c1ccc(OC(F)(F)F)cc1Cl [Compound 336, 1-(2-chloro-4-(trifluoromethoxy)phenyl)-N-((2-chloro-5-methoxyphenyl)sulfonyl)-5-ethyl-1H-1,2,3-triazole-4-carboxamide] | 4
COc1ccc(C)cc1S(=O)(=O)NC(=O)c1nnn(-c2ccc(OC(F)(F)F)cc2Cl)c1C [Compound 587] | 4
Cc1c(C(=O)NS(=O)(=O)c2cc(Cl)ccc2Cl)nnn1-c1ccc(OC(F)F)cc1Cl [Compound 666] | 4
Cc1c(Cl)cccc1S(=O)(=O)NC(=O)c1nnn(-c2ccc(OC(F)(F)F)cc2Cl)c1C(F)(F)F [Compound 596, N-((3-chloro-2-methylphenyl)sulfonyl)-1-(2-chloro-4-(trifluoromethoxy)phenyl)-5-(trifluoromethyl)-1H-1,2,3-triazole-4-carboxamide] | 4
Cc1c(C(=O)NS(=O)(=O)c2ccc(F)cc2F)nnn1-c1ccc(C#N)cc1F [Compound 413] | 4
Cc1c(C(=O)NS(=O)(=O)c2ccccc2C(F)(F)F)nnn1-c1ccc(OC(F)(F)F)cc1Cl [Compound 132] | 4
Cc1c(C(=O)NS(=O)(=O)c2ccc(F)cc2)nnn1-c1cc(Cl)cc(Cl)c1 [Compound 25] | 4
Cc1ccc(C)c(S(=O)(=O)NC(=O)c2nnn(-c3ccc(OC(F)F)cc3Cl)c2C)c1 [Compound 667] | 4
Cc1c(C(=O)NS(=O)(=O)c2cc(Cl)ccc2F)nnn1-c1ccc(OC(F)(F)F)cc1Cl [Compound 168, N-((5-chloro-2-fluorophenyl)sulfonyl)-1-(2-chloro-4-(trifluoromethoxy)phenyl)-5-methyl-1H-1,2,3-triazole-4-carboxamide] | 4
